The results in this text go back to patent publication US9232796B2, “Herbicidal compositions comprising 4-amino-3-chloro-5-fluoro-6-(4-chloro-2-fluoro-3-methoxyphenyl) pyridine-2-carboxylic acid or a derivative thereof and acetyl-CoA carboxylase (ACCase) inhibitors” (DOW AGROSCIENCES LLC, priority 2012, dated 2016).

Test [1] has as its system ECHCG. The test can be described thus: Example II in-water applied, greenhouse, transplanted paddy rice weeds. The class given is in vivo, Echinochloa crusgalli (L.) Beauv. The settings on record: 135 gai/ha. On the procedure:
(§1) Applications were made by injecting with a pipetter appropriate amounts of the application solutions, individually and sequentially, into the aqueous layer of the paddy. Control plants were treated in the same manner with the solvent blank. Applications were made so that all treated plant material received the same concentrations of acetone and crop oil concentrate.
(§2) The treated plants and control plants were placed in a greenhouse as described above and water was added as needed to maintain a paddy flood. After approximately 3 weeks the condition of the test plants as compared with that of the untreated plants was determined visually and scored on a scale of 0 to 100 percent where 0 corresponds to no injury or growth inhibition and 100 corresponds to complete kill.
(§3) Colby's equation was used to determine the herbicidal effects expected from the mixtures (Colby, S. R. 1967. Calculation of the synergistic and antagonistic response of herbicide combinations. Weeds 15:20-22.).
(§4) The following equation was used to calculate the expected activity of mixtures containing two active ingredients, A and B: Expected=A+B−(A×B/100)

The next test relates to LEFCH. Description: Example I postemergence foliar-applied, greenhouse, direct seeded rice weeds. Format: in vivo, Leptochloa chinensis (L.) Nees. The settings on record: 112 gai/ha. An excerpt:
(§5) Seeds or nutlets of the desired test plant species were planted in a soil matrix prepared by mixing a loam or sandy loam soil (e.g., 28.6 percent silt, 18.8 percent clay, and 52.6 percent sand, with a pH of about 5.8 and an organic matter content of about 1.8 percent) and calcareous grit in an 80 to 20 ratio. The soil matrix was contained in plastic pots with a volume of 1 quart and a surface area of 83.6 square centimeters (cm^2). When required to ensure good germination and healthy plants, a fungicide treatment and/or other chemical or physical treatment was applied. The plants were grown for 8-22 days in a greenhouse with an approximate 14 hr. photoperiod which was maintained at about 29° C. during the day and 26° C. during the night. Nutrients (Peters Excel® 15-5-15 5-Ca 2-Mg and iron chelate) were applied in the irrigation solution as needed and water was added on a regular basis. Supplemental lighting was provided with overhead metal halide 1000-Watt lamps as necessary. The plants were employed for testing when they reached the first through fourth true leaf stage.
(§6) Treatments consisted of the acid or esters of 4-amino-3-chloro-5-fluoro-6-(4-chloro-2-fluoro-3-methoxy-phenyl)pyridine-2-carboxylic acid (Compound A), each formulated as an SC (suspension concentrate), and various herbicidal components alone and in combination.
(§7) Other herbicidal components were applied on an acid equivalent (ae) or active ingredient (ai) basis and included acetyl coA carboxylase (ACCase)-inhibiting herbicides (cyclohexanedione and aryloxyphenoxypropionate chemical classes) cyhalofop-butyl formulated as Clincher® SF (285 gr ai/L EC), diclofop-methyl formulated as Hoelon® 3EC, fenoxaprop-p-ethyl+isoxadifen-ethyl formulated as RiceStar® HT (0.58 lb./gal EC), fenoxaprop-p-ethyl+mefenpyr diethyl formulated as Puma® IEC, metamifop formulated as Metamifop EC, haloxyfop-methyl formulated as Gallant Super®, fluazifop-p-butyl formulated as Fusilade® DX, quizalofop-p-ethyl formulated as Assure® II, profoxydim formulated as Aura® 20EC, clethodim applied as Intensity®, sethoxydim formulated as Poast®, and tralkoxydim formulated as Achieve®.
(§8) Treatment requirements were calculated based upon the rates being tested, the concentration of active ingredient or acid equivalent in the formulation, and a 12 mL application volume at a rate of 187 L/ha.
(§9) For treatments comprised of formulated compounds, measured amounts of compounds were placed individually in 25 mL glass vials and diluted in a volume of 1.25% (v/v) Agri-Dex® crop oil concentrated to obtain 12× stock solutions. […] Application solutions were prepared by adding an appropriate amount of each stock solution (e.g., 1 mL) and diluted to the appropriate final concentrations with the addition of 10 mL of an aqueous mixture of 1.25% (v/v) crop oil concentrate so that the final spray solutions contained 1.25+/−0.05% (v/v) crop oil concentrate.
(§10) All stock solutions and applications solutions were visually inspected for compound compatibility prior to application. Spray solutions were applied to the plant material with an overhead Mandel track sprayer equipped with a 8002E nozzles calibrated to deliver 187 L/ha over an application area of 0.503 m^2 at a spray height of 18 to 20 inches (46 to 50 cm) above average plant canopy height. Control plants were sprayed in the same manner with the solvent blank.
(§11) The treated plants and control plants were placed in a greenhouse as described above and watered by sub-irrigation to prevent wash-off of the test compounds. After approximately 3 weeks, the condition of the test plants as compared with that of the untreated plants was determined visually and scored on a scale of 0 to 100 percent where 0 corresponds to no injury or growth inhibition and 100 corresponds to complete kill. […]

In test [2] the test system is SCPJU. The test can be described thus: Example II in-water applied, greenhouse, transplanted paddy rice weeds. The class given is in vivo, Schoenoplectus juncoides (Roxb.) Palla. The settings on record: in-water, 135 gai/ha. As for the experimental part: (§12) Weed seeds or nutlets of the desired test plant species were planted in puddled soil (mud) prepared by mixing a shredded, non-sterilized mineral soil (50.5 percent silt, 25.5 percent clay, and 24 percent sand, with a pH of about 7.6 and an organic matter content of about 2.9 percent) and water at a 1:1 volumetric ratio. The prepared mud was dispensed in 365 mL aliquots into 16-ounce (oz.) non-perforated plastic pots with a surface area of 86.59 square centimeters (cm^2) leaving a headspace of 3 centimeters (cm) in each pot. Mud was allowed to dry overnight prior to planting or transplanting. Rice seeds were planted in Sun Gro MetroMix® 306 planting mixture, which typically has a pH of 6.0 to 6.8 and an organic matter content of about 30 percent, in plastic plug trays. Seedlings at the second or third leaf stage of growth were transplanted into 860 mL of mud contained in 32-oz. non-perforated plastic pots with a surface area of 86.59 cm^2 4 days prior to herbicide application. The paddy was created by filling the headspace of the pots with 2.5 to 3 cm of water. […] The plants were grown for 4-22 days in a greenhouse with an approximate 14 hr. photoperiod which was maintained at about 29° C. during the day and 26° C. during the night. Nutrients were added as Osmocote® (19:6:12, N:P:K+minor nutrients) at 2 g per 16-oz. pot and 4 g per 32-oz. pot. Water was added on a regular basis to maintain the paddy flood, and supplemental lighting was provided with overhead metal halide 1000-Watt lamps as necessary. The plants were employed for testing when they reached the first through fourth true leaf stage.
(§13) Treatments consisted of the acid or esters of 4-amino-3-chloro-5-fluoro-6-(4-chloro-2-fluoro-3-methoxy-phenyl)pyridine-2-carboxylic acid (compound A) each formulated as an SC (suspension concentrate) and various herbicidal components alone and in combination.
(§14) For formulated compounds, a measured amount was placed in an individual 100 or 200 mL glass vial and was dissolved in a volume of 1.25% (v/v) Agri-Dex® crop oil concentrate to obtain application solutions.
as §1, §2, §3, §4

Another test concerns CYPIR. Description: Example I postemergence foliar-applied, greenhouse, direct seeded rice weeds. The class given is in vivo, Cyperus iria L.
Source text: as §5, §6, §7, §8, §9, §10, §11

Another test concerns CYPES. The description is as above. Format: in vivo, Cyperus esculentus L.
Source text: as §5, §6, §7, §8, §9, §10, §11

The next test has as its system FIMMI. The test can be described thus: Example II in-water applied, greenhouse, transplanted paddy rice weeds. The class given is in vivo, Fimbristylis miliacea (L.) Vahl. As for the experimental part: as §12, §13, §14, §1, §2, §3, §4
For test [3], the system named is ECHCG. Description: Example I postemergence foliar-applied, greenhouse, direct seeded rice weeds. The class given is in vivo, Echinochloa crusgalli (L.) Beauv.
Source text: as §5, §6, §7, §8, §9, §10, §11

In test [4] the test system is SCPJU. Described as above. The class given is in vivo, Schoenoplectus juncoides (Roxb.) Palla.
Source text: as §5, §6, §7, §8, §9, §10, §11

Another test deals with CYPDI. Described as above. Format: in vivo, Cyperus difformis L.
Source text: as §5, §6, §7, §8, §9
All stock solutions and applications solutions were visually inspected for compound compatibility prior to application. […]
as §11

Consider `CCC/C(=N\OCC)C1=C(O)CC(CC(C)SCC)CC1=O` (stereo not shown) [Sethoxydim, 2-[1-(ethoxyimino)butyl]-5-[2-(ethylthio)propyl]-3-hydroxy-2-cyclohexen-1-one], for which, in the test with ECHCG [1], the “Visual Weed Control (%) - 21 DAA ECHCG Obs” value turned out to be 60%. Moreover, in the test on LEFCH, the “Visual Weed Control (%) - 22 DAA LEFCH Obs” value is 70%. For the same molecule, the “Visual Weed Control (%) - 21 DAA SCPJU Obs” value with SCPJU [2] was 0%. Also, the “Visual Weed Control (%) - 22 DAA CYPIR Obs” value in the test on CYPIR (67.5 gai/ha), in the test on CYPIR (135 gai/ha) and with CYPIR (270 gai/ha) was 0% throughout. Besides, the “Visual Weed Control (%) - 22 DAA CYPES Obs” value with CYPES (67.5 gai/ha), in the test with CYPES (135 gai/ha) and in the test on CYPES (270 gai/ha) was 0% each time. In addition, the “Visual Weed Control (%) - 21 DAA FIMMI Obs” value with FIMMI (135 gai/ha) amounted to 50%; in the test on FIMMI (270 gai/ha), 30%. The “Visual Weed Control (%) - 22 DAA ECHCG Obs” value with ECHCG [3] (56 gai/ha) was found to be 30%; in the test on ECHCG [3] (112 gai/ha), 90%. Further, the “Visual Weed Control (%) - 22 DAA SCPJU Obs” value in the test with SCPJU [4] (67.5 gai/ha), in the test with SCPJU [4] (135 gai/ha) and in the test with SCPJU [4] (270 gai/ha) was 0% each time. In addition, the “Visual Weed Control (%) - 22 DAA CYPDI Obs” value with CYPDI (67.5 gai/ha), in the test on CYPDI (135 gai/ha) and in the test with CYPDI (270 gai/ha) was 0% throughout.
